Patent US12378224B2 (Dong-A Socio Holdings Co., Ltd., priority 2016, dated 2025)

Tests used:
human MER (528-end) = human MER (528-end) (Homo sapiens (Human), UniProt Q12866); assay: HTRF Kinase Activity Biochemical Assay (KinEASE-TK); details: 10 uM ATP
Procedure, shortened: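 Activity read-out is the HTRF ratio (665 nm over 620 nm emission, ×10,000; excitation 340 nm) after 1 h detection with 0.375 nM Eu3+-cryptate anti-TK antibody plus 0.062 uM SA-XL665. Preceding kinase step: human MER (528-end), biotinylated TK substrate, 1 h, room temperature.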

[1] = biological target: BCR fusion to kinase domain of MerTK (Ba/F3-MerTK) (Homo sapiens, UniProt Q12866); assay: In Cell TAM Kinase Assay Using BaF3 Cellular System; assay type: cell-based, murine; details: Ba/F3 BCR-kinase fusion proliferation, 72 hours, Cell Titer Glo; kinase not given; read-out: IC50
Sequence of BCR fusion to kinase domain of MerTK (Ba/F3-MerTK) (Q12866 21-999 limits assumed, change not shown): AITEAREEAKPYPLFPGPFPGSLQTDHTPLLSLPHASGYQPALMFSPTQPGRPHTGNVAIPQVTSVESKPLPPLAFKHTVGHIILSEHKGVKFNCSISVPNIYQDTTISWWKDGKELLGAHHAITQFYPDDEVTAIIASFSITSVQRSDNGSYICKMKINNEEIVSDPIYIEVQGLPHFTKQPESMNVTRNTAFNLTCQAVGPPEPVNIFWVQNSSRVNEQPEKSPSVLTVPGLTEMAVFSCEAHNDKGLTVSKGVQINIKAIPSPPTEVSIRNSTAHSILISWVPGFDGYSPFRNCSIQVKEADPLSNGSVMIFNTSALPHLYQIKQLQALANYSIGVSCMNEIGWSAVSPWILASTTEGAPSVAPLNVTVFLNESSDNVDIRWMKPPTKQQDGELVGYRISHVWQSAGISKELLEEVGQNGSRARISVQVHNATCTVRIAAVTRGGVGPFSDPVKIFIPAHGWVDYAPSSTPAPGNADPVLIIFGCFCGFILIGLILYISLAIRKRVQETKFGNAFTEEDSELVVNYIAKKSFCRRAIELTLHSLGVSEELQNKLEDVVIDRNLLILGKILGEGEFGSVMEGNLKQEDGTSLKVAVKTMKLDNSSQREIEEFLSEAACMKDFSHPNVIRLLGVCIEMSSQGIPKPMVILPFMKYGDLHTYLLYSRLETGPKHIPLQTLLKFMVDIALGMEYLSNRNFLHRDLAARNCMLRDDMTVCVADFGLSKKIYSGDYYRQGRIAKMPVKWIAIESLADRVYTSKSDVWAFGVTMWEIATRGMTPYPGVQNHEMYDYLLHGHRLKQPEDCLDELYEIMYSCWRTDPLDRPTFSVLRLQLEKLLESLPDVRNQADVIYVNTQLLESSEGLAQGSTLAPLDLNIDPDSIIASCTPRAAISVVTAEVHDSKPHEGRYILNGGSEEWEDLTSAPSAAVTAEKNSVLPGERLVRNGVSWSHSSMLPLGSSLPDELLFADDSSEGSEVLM
Procedure, shortened: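 Ba/F3 murine pro-B cells expressing BCR–MerTK kinase-domain fusion (IL-3 independent), seeded at 1,000 cells/well onto compound and grown 72 h. Viability read by CellTiter-Glo 2.0 luminescence after 30 min at room temperature.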

Sequence of human MER (528-end) (Q12866 528-999 limits assumed): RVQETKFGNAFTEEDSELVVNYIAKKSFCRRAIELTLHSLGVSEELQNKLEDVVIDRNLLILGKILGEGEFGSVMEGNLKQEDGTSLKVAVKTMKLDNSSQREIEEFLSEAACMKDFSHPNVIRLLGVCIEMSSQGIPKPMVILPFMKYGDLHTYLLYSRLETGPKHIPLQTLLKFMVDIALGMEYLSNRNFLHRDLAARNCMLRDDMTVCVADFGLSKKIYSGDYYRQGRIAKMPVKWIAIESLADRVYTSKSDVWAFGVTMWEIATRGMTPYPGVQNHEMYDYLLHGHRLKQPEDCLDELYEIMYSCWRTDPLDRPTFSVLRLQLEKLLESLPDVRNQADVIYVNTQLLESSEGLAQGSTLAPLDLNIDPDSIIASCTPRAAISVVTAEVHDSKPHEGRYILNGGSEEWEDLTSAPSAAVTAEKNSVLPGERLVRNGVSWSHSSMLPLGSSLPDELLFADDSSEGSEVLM

Row | Compound | IC50 (human MER (528-end)) | IC50 [1]
1 | Cn1cc(-c2cnc(N)c(C(=O)N[C@@H]3CCN(C(=O)c4ccc(-c5cccc(-c6nnn[nH]6)c5)cc4)C3)c2)cn1 [Example 713, (R)—N-(1-(3′-(1H-tetrazol-5-yl)-[1,1′-biphenyl]-4-carbonyl)pyrrolidin-3-yl)-2-amino-5-(1-methyl-1H-pyrazol-4-yl)nicotinamide] | 0.1 to 1 µM | > 1 µM
2 | Cc1nc(-c2cccc(-c3ccc(C(=O)N4CC[C@@H](NC(=O)c5cc(-c6cnn(C)c6)cnc5N)C4)cc3)c2)no1 [Example 714, (R)-2-amino-N-(1-(3′-(5-methyl-1,2,4-oxadiazol-3-yl)-[1,1′-biphenyl]-4-carbonyl)pyrrolidin-3-yl)-5-(1-methyl-1H-pyrazol-4-yl)nicotinamide] | 0.01 to 0.1 µM | > 1 µM
3 | Cn1cc(-c2cnc(N)c(C(=O)N[C@@H]3CCN(C(=O)c4ccc(Oc5ccccc5Cl)cc4)C3)c2)cn1 [Example 718, (R)-2-amino-N-(1-(4-(2-chlorophenoxy)benzoyl)pyrrolidin-3-yl)-5-(1-methyl-1H-pyrazol-4-yl)nicotinamide] | 0.01 to 0.1 µM | 0.5 to 1 µM
4 | CN1CCC(N(Cc2ccccc2)c2ccc3cc(C(=O)N4CC[C@@H](NC(=O)c5cc(-c6cnn(C)c6)cnc5N)C4)ccc3c2)CC1 [Example 720, (R)-2-amino-N-(1-(6-(benzyl(1-methylpiperidin-4-yl)amino)-2-naphthoyl)pyrrolidin-3-yl)-5-(1-methyl-1H-pyrazol-4-yl)nicotinamide] | 0.1 to 1 µM | > 1 µM
5 | CCN(c1ccc2cc(C(=O)N3CC[C@@H](NC(=O)c4cc(-c5cnn(C)c5)cnc4N)C3)ccc2c1)C1CC(C)(C)N(C)C(C)(C)C1 [Example 721, (R)-2-amino-N-(1-(6-(ethyl(1,2,2,6,6-pentamethylpiperidin-4-yl)amino)-2-naphthoyl)pyrrolidin-3-yl)-5-(1-methyl-1H-pyrazol-4-yl)nicotinamide] | 0.01 to 0.1 µM | 0.1 to 0.5 µM
6 | CN1C(C)(C)CC(Nc2ccc3cc(C(=O)N4CC[C@@H](NC(=O)c5cc(-c6cnn(C)c6)cnc5N)C4)ccc3c2)CC1(C)C [Example 722, (R)-2-amino-5-(1-methyl-1H-pyrazol-4-yl)-N-(1-(6-((1,2,2,6,6-pentamethylpiperidin-4-yl)amino)-2-naphthoyl)pyrrolidin-3-yl)nicotinamide] | > 1 µM | > 1 µM
7 | Cn1cc(-c2cnc(N)c(C(=O)NC[C@@H]3CCCN3C(=O)c3ccc(-c4ccccc4)cc3)c2)cn1 [Example 734, (S)—N-((1-([1,1′-biphenyl]-4-carbonyl)pyrrolidin-2-yl)methyl)-2-amino-5-(1-methyl-1H-pyrazol-4-yl)nicotinamide] | > 1 µM | > 1 µM
8 | Cn1cc(-c2cnc(N)c(C(=O)NC[C@@H]3CCCN3C(=O)c3cccc(-c4ccccc4)c3)c2)cn1 [Example 735, (S)—N-((1-([1,1′-biphenyl]-3-carbonyl)pyrrolidin-2-yl)methyl)-2-amino-5-(1-methyl-1H-pyrazol-4-yl)nicotinamide] | > 1 µM | > 1 µM
9 | Cn1cc(-c2cnc(N)c(C(=O)NC[C@H]3CCCN3C(=O)c3cccc(-c4ccccc4)c3)c2)cn1 [Example 737, (R)—N-((1-([1,1′-biphenyl]-3-carbonyl)pyrrolidin-2-yl)methyl)-2-amino-5-(1-methyl-1H-pyrazol-4-yl)nicotinamide] | > 1 µM | > 1 µM
10 | Cn1cc(-c2cnc(N)c(C(=O)NC[C@H]3CCN(C(=O)c4ccc(-c5ccccc5)cc4)C3)c2)cn1 [Example 740, (R)—N-((1-([1,1′-biphenyl]-4-carbonyl)pyrrolidin-3-yl)methyl)-2-amino-5-(1-methyl-1H-pyrazol-4-yl)nicotinamide] | > 1 µM | > 1 µM
11 | Cn1cc(-c2cnc(N)c(C(=O)NC[C@H]3CCN(C(=O)c4cccc(-c5ccccc5)c4)C3)c2)cn1 [Example 741, (R)—N-((1-([1,1′-biphenyl]-3-carbonyl)pyrrolidin-3-yl)methyl)-2-amino-5-(1-methyl-1H-pyrazol-4-yl)nicotinamide] | > 1 µM | > 1 µM
12 | Cn1cc(-c2cnc(N)c(C(=O)N[C@@H]3CCN(C(=O)c4ccc(-c5ccc(CO)cc5)cc4)C3)c2)cn1 [Example 747, (R)-2-amino-N-(1-(4′-(hydroxymethyl)-[1,1′-biphenyl]-4-carbonyl)pyrrolidin-3-yl)-5-(1-methyl-1H-pyrazol-4-yl)nicotinamide] | 0.1 to 1 µM | > 1 µM
13 | Cn1cc(-c2cnc(N)c(C(=O)N[C@@H]3CCN(C(=O)c4ccc(-c5cccc(CO)c5)cc4)C3)c2)cn1 [Example 748, (R)-2-amino-N-(1-(3′-(hydroxymethyl)-[1,1′-biphenyl]-4-carbonyl)pyrrolidin-3-yl)-5-(1-methyl-1H-pyrazol-4-yl)nicotinamide] | 0.01 to 0.1 µM | 0.1 to 0.5 µM
14 | Cn1cc(-c2cnc(N)c(C(=O)N[C@@H]3CCN(C(=O)c4ccc(-c5ccc(O)nc5)cc4)C3)c2)cn1 [Example 749, (R)-2-amino-N-(1-(4-(6-hydroxypyridin-3-yl)benzoyl)pyrrolidin-3-yl)-5-(1-methyl-1H-pyrazol-4-yl)nicotinamide] | > 1 µM | > 1 µM
15 | Cn1cc(-c2cnc(N)c(C(=O)N[C@@H]3CCN(C(=O)c4ccc(-c5ccc6ccccc6c5)cc4)C3)c2)cn1 [Example 750, (R)-2-amino-5-(1-methyl-1H-pyrazol-4-yl)-N-(1-(4-(naphthalen-2-yl)benzoyl)pyrrolidin-3-yl)nicotinamide] | 0.01 to 0.1 µM | > 1 µM
16 | Cn1cc(-c2cnc(N)c(C(=O)N[C@@H]3CCN(C(=O)c4ccc(C5=CCNCC5)cc4)C3)c2)cn1 [Example 753, (R)-2-amino-5-(1-methyl-1H-pyrazol-4-yl)-N-(1-(4-(1,2,3,6-tetrahydropyridin-4-yl)benzoyl)pyrrolidin-3-yl)nicotinamide] | > 1 µM | > 1 µM
17 | CN1CC=C(c2ccc(C(=O)N3CC[C@@H](NC(=O)c4cc(-c5cnn(C)c5)cnc4N)C3)cc2)CC1 [Example 754, (R)-2-amino-N-(1-(4-(1-methyl-1,2,3,6-tetrahydropyridin-4-yl)benzoyl)pyrrolidin-3-yl)-5-(1-methyl-1H-pyrazol-4-yl)nicotinamide] | > 1 µM | > 1 µM
18 | Cn1cc(-c2cnc(N)c(C(=O)N[C@@H]3CCN(C(=O)c4ccc(-c5ccc(C6=CCNCC6)cc5)cc4)C3)c2)cn1 [Example 755, (R)-2-amino-5-(1-methyl-1H-pyrazol-4-yl)-N-(1-(4′-(1,2,3,6-tetrahydropyridin-4-yl)-[1,1′-biphenyl]-4-carbonyl)pyrrolidin-3-yl)nicotinamide] | > 1 µM | > 1 µM
19 | Cn1cc(-c2cnc(N)c(C(=O)N[C@@H]3CCN(C(=O)c4ccc(-c5ccc6c(ccn6C)c5)cc4)C3)c2)cn1 [Example 756, (R)-2-amino-N-(1-(4-(1-methyl-1H-indol-5-yl)benzoyl)pyrrolidin-3-yl)-5-(1-methyl-1H-pyrazol-4-yl)nicotinamide] | 0.1 to 1 µM | > 1 µM
20 | Cn1cc(-c2cnc(N)c(C(=O)N[C@@H]3CCN(C(=O)c4ccc(-c5ccc6c(cnn6C)c5)cc4)C3)c2)cn1 [Example 757, (R)-2-amino-N-(1-(4-(1-methyl-1H-indazol-5-yl)benzoyl)pyrrolidin-3-yl)-5-(1-methyl-1H-pyrazol-4-yl)nicotinamide] | 0.1 to 1 µM | > 1 µM
21 | CN(C)CCOc1ccc2cc(C(=O)N3CC[C@@H](NC(=O)c4cc(-c5cnn(C)c5)cnc4N)C3)ccc2c1 [Example 762] | 0.1 to 1 µM | > 1 µM
22 | CN1CCCC1CCOc1ccc2cc(C(=O)N3CC[C@@H](NC(=O)c4cc(-c5cnn(C)c5)cnc4N)C3)ccc2c1 (stereo partly drawn) [Example 764] | 0.1 to 1 µM | > 1 µM
23 | Cn1cc(-c2cnc(N)c(C(=O)N[C@@H]3CCN(C(=O)c4ccc5cc(OCCN6CCCC6)ccc5c4)C3)c2)cn1 [Example 765, (R)-2-amino-5-(1-methyl-1H-pyrazol-4-yl)-N-(1-(6-(2-(pyrrolidin-1-yl)ethoxy)-2-naphthoyl)pyrrolidin-3-yl)nicotinamide] | 0.1 to 1 µM | > 1 µM
24 | CN(C)CCCOc1ccc2cc(C(=O)N3CC[C@@H](NC(=O)c4cc(-c5cnn(C)c5)cnc4N)C3)ccc2c1 [Example 766, (R)-2-amino-N-(1-(6-(3-(dimethylamino)propoxy)-2-naphthoyl)pyrrolidin-3-yl)-5-(1-methyl-1H-pyrazol-4-yl)nicotinamide] | 0.1 to 1 µM | > 1 µM
25 | CN1CCC(COc2ccc3cc(C(=O)N4CC[C@@H](NC(=O)c5cc(-c6cnn(C)c6)cnc5N)C4)ccc3c2)CC1 [Example 767, (R)-2-amino-5-(1-methyl-1H-pyrazol-4-yl)-N-(1-(6-((1-methylpiperidin-4-yl)methoxy)-2-naphthoyl)pyrrolidin-3-yl)nicotinamide] | 0.1 to 1 µM | > 1 µM
26 | Cn1cc(-c2cnc(N)c(C(=O)N[C@@H]3CCN(C(=O)c4ccc(OCc5ccc([N+](=O)[O-])cc5)cc4)C3)c2)cn1 [Example 769, (R)-2-amino-5-(1-methyl-1H-pyrazol-4-yl)-N-(1-(4-((4-nitrobenzyl)oxy)benzoyl)pyrrolidin-3-yl)nicotinamide] | 0.1 to 1 µM | > 1 µM
27 | Cn1cc(-c2cnc(N)c(C(=O)N[C@@H]3CCN(C(=O)c4ccc(OCc5cccc([N+](=O)[O-])c5)cc4)C3)c2)cn1 [Example 770, (R)-2-amino-5-(1-methyl-1H-pyrazol-4-yl)-N-(1-(4-((3-nitrobenzyl)oxy)benzoyl)pyrrolidin-3-yl)nicotinamide] | 0.1 to 1 µM | > 1 µM
